What was measured:
rhesus H3 receptor [1] = target: T1, rhesus H3 receptor (Macaca mulatta, UniProt Q865E1); test: GTPγS radioligand binding assay, inhibition of rhesus H3 constitutive functional activity (inverse agonism); assay type: biochemical, rhesus monkey (Macacca Mulatta); parameters: concentration or dose not given beside the values; conditions: rhesus H3 cell membranes, relative to basal levels
Summary of the method: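 Membranes from tetracycline-induced (500 ng/ml, 24 h) Flp-In T-REx 293 cells stably expressing the 445-aa rhesus H3 receptor, resuspended in 5 mM HEPES pH 7.4 at 10 mg/ml protein. Inverse agonism measured as inhibition of constitutive GTPγS binding.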

rhesus H3 receptor [2] = target: T1, rhesus H3 receptor; test: Rhesus H3 [3H]-methylhistamine radioligand binding assay; parameters: species or system rhesus monkey (Macacca Mulatta); conditions: [3H]-Methylhistamine 2 nM, rhesus H3 membranes, WGA SPA beads, Cheng-Prusoff
Summary of the method: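 Membranes from tetracycline-induced (500 ng/ml, 24 h) Flp-In T-REx 293 cells expressing 445-aa rhesus H3 receptor, 20-30 μg protein per reaction. WGA SPA format with 2 nM [3H]-methylhistamine, 1 hour at 25° C; Ki obtained via Hill transformation and Cheng-Prusoff equation.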

T1 sequence (Q865E1 1-445): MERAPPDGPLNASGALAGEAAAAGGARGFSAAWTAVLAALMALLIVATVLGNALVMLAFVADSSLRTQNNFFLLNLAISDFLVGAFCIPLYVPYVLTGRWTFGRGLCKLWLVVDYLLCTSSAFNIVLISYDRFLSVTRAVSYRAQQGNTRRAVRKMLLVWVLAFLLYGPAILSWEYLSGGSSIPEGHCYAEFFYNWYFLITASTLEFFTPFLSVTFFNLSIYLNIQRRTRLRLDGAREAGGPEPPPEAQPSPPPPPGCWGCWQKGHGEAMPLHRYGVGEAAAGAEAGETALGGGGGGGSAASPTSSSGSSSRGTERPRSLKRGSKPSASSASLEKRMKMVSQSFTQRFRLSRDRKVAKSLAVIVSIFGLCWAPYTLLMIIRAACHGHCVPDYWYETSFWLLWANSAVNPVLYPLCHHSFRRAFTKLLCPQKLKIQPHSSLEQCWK

SMILES	Inverse Agonism: % inhibition of Basal GTPγS binding in Rhesus H3 (rhesus H3 receptor [1]) [%]	Ki (rhesus H3 receptor [2]) [nM]
C[C@H]1CCCN1[C@H]1CCN(c2ccc(N3CCC4(CCN(CC5CC5)CC4)C3=O)c(C(F)(F)F)c2)C1 [Example 67, 8-Cyclopropylmethyl-2-[4-((2S,3′S)-2-methyl-[1,3′]bipyrrolidinyl-1′-yl)-2-trifluoromethyl-phenyl]-2,8-diaza-spiro[4.5]decan-1-one]	−12	1.4
C[C@H]1CCCN1[C@H]1CCN(c2ccc(N3CCC4(CCN(CC5CCOCC5)CC4)C3=O)c(C(F)(F)F)c2)C1 [Example 68, 2-[4-((2S,3′S)-2-Methyl-[1,3′]bipyrrolidinyl-1′-yl)-2-trifluoromethyl-phenyl]-8-(tetrahydro-pyran-4-ylmethyl)-2,8-diaza-spiro[4.5]decan-1-one]	−19	4.2
C[C@H]1CCCN1[C@H]1CCN(c2ccc(N3CCC4(CCNCC4)C3=O)c(C(F)(F)F)c2)C1.Cl [Example 69, 2-[4-((2S,3′S)-2-Methyl-[1,3′]bipyrrolidinyl-1′-yl)-2-trifluoromethyl-phenyl]-2,8-diaza-spiro[4.5]decan-1-one Hydrochloride]	−28	0.09
